Data from PubChem BioAssay AID248 (DTP/NCI, 2004).
Inconclusive results and toxic doses are left out. Rule as the data show it: active = T/C of 150% or more; inactive = T/C below 125%.

Tested on: L1210 leukemia ip in BDF1 mice, survival T/C
Assay: NCI In Vivo Anticancer Drug Screen. Data for tumor model L1210 Leukemia (intraperitoneal) in B6D2F1 (BDF1) mice
Conditions: endpoint: mean survival time, higher = longer survival
Outline: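 Each compound was tested against a transplantable tumor grown in mice. The endpoint was survival, with treated animals benchmarked against vehicle controls as a simple ratio.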

[1] = dose: 100.0 mg/kg/injection, schedule: Q04DX003 (ip), vehicle: saline with Tween-80
[2] = dose: 100.0 mg/kg/injection, schedule: Q01DX001 (ip), vehicle: saline
[3] = dose: 200.0 mg/kg/injection, schedule: Q01DX001 (ip), vehicle: saline
[4] = dose: 400.0 mg/kg/injection, schedule: Q01DX001 (ip), vehicle: saline
[5] = dose: 200.0 mg/kg/injection, schedule: Q04DX003 (ip), vehicle: saline with Tween-80
[6] = dose: 400.0 mg/kg/injection, schedule: Q04DX003 (ip), vehicle: saline with Tween-80
[7] = dose: 100.0 mg/kg/injection, schedule: Q01DX001 (ip), vehicle: carboxymethylcellulose (CMC)
[8] = dose: 200.0 mg/kg/injection, schedule: Q01DX001 (ip), vehicle: carboxymethylcellulose (CMC)
[9] = dose: 400.0 mg/kg/injection, schedule: Q01DX001 (ip), vehicle: carboxymethylcellulose (CMC)
[10] = dose: 100.0 mg/kg/injection, schedule: Q04DX003 (ip), vehicle: saline
[11] = dose: 200.0 mg/kg/injection, schedule: Q04DX003 (ip), vehicle: saline
[12] = dose: 100.0 mg/kg/injection, schedule: Q01DX009 (ip), vehicle: Klucel (hydroxypropylcellulose) (HPC)
[13] = dose: 200.0 mg/kg/injection, schedule: Q01DX009 (ip), vehicle: Klucel (hydroxypropylcellulose) (HPC)
[14] = dose: 400.0 mg/kg/injection, schedule: Q01DX009 (ip), vehicle: Klucel (hydroxypropylcellulose) (HPC)

Measured: T/C

Cc1cc(N=CN(C)C)c2ccccc2n1
inactive: dose: 25.0 mg/kg/injection, schedule: Q01DX001 (ip), vehicle: saline with Tween-80 102 % of control | dose: 50.0 mg/kg/injection, schedule: Q01DX001 (ip), vehicle: saline with Tween-80 101 % of control | dose: 50.0 mg/kg/injection, schedule: Q04DX003 (ip), vehicle: saline with Tween-80 108 % of control | [1] 98 % of control

O=C(O)c1ccccc1C(=O)c1ccc2cccc(F)c2c1
inactive: dose: 100.0 mg/kg/injection, schedule: Q01DX001 (ip), vehicle: Klucel (hydroxypropylcellulose) (HPC) 105 % of control | dose: 200.0 mg/kg/injection, schedule: Q01DX001 (ip), vehicle: Klucel (hydroxypropylcellulose) (HPC) 120 % of control | dose: 400.0 mg/kg/injection, schedule: Q01DX001 (ip), vehicle: Klucel (hydroxypropylcellulose) (HPC) 100 % of control

Cc1ccc(C(CS(=O)(=O)c2ccc(C)cc2)c2ccccc2)cc1 (stereo not drawn)
inactive: [2] 92 % of control | [3] 103 % of control | [4] 94 % of control

Oc1cccnc1CN1CCOCC1
inactive: dose: 100.0 mg/kg/injection, schedule: Q01DX009 (ip), vehicle: saline with Tween-80 96 % of control | [1] 97 % of control | dose: 200.0 mg/kg/injection, schedule: Q01DX009 (ip), vehicle: saline with Tween-80 89 % of control | [5] 108 % of control | dose: 400.0 mg/kg/injection, schedule: Q01DX009 (ip), vehicle: saline with Tween-80 96 % of control | [6] 100 % of control

CC1CN1c1nc(N2CC2C)nc(N2CC2C)n1 (stereo not drawn)
inactive: dose: 1.56 mg/kg/injection, schedule: Q01DX009 (ip), vehicle: saline 97 % of control | dose: 3.13 mg/kg/injection, schedule: Q01DX009 (ip), vehicle: saline 95 % of control | dose: 5.0 mg/kg/injection, schedule: Q01DX001 (ip), vehicle: saline 100 % of control | dose: 6.25 mg/kg/injection, schedule: Q01DX009 (ip), vehicle: saline 92 % of control | dose: 10.0 mg/kg/injection, schedule: Q01DX001 (ip), vehicle: saline 109 % of control | dose: 12.5 mg/kg/injection, schedule: Q01DX009 (ip), vehicle: saline 87 % of control | dose: 20.0 mg/kg/injection, schedule: Q01DX001 (ip), vehicle: saline 109 % of control

N#C/C(=C1C=C/C(=N/O)C(Cl)=C/1)c1ccc(Cl)cc1
inactive: dose: 50.0 mg/kg/injection, schedule: Q01DX001 (ip), vehicle: carboxymethylcellulose (CMC) 96 % of control | [7] 98 % of control | [1] 103 % of control | [8] 93 % of control | [5] 97 % of control | [9] 91 % of control | [6] 97 % of control

Cc1cccc(CN)n1
inactive: dose: 50.0 mg/kg/injection, schedule: Q01DX009 (ip), vehicle: saline 98 % of control | dose: 100.0 mg/kg/injection, schedule: Q01DX009 (ip), vehicle: saline 98 % of control | [10] 104 % of control | dose: 200.0 mg/kg/injection, schedule: Q01DX009 (ip), vehicle: saline 97 % of control | [11] 104 % of control

CC(=O)Nc1ccc2c(c1)C(=Nc1ccccc1)c1ccccc1-2
inactive: [1] 91 % of control | [5] 91 % of control | [6] 91 % of control

O=C(O)c1cc2oc3ccccc3c2cc1O
inactive: [12] 94 % of control | dose: 100.0 mg/kg/injection, schedule: Q04DX003 (ip), vehicle: Klucel (hydroxypropylcellulose) (HPC) 98 % of control | [13] 100 % of control | dose: 200.0 mg/kg/injection, schedule: Q04DX003 (ip), vehicle: Klucel (hydroxypropylcellulose) (HPC) 95 % of control | dose: 400.0 mg/kg/injection, schedule: Q04DX003 (ip), vehicle: Klucel (hydroxypropylcellulose) (HPC) 93 % of control

CN1C2CCC1CC(NCCN1CC1)C2 (stereo not drawn)
inactive: [2] 107 % of control

CC1(C)N=C(N)Nc2nnc(-c3ccc(Cl)cc3)n21
inactive: [1] 97 % of control | [5] 97 % of control | [6] 94 % of control

CC(=O)NS(=O)(=O)c1cc(N)ccc1S(=O)(=O)c1ccc(N)cc1
inactive: [2] 94 % of control | [3] 92 % of control | [4] 92 % of control

CC(=O)c1cccc(NC(=O)Nc2cccc(O)c2)c1
inactive: [12] 101 % of control | [13] 97 % of control | [14] 101 % of control

CCCCCCCCCC(=O)N/N=C/c1cccnc1
inactive: dose: 100.0 mg/kg/injection, schedule: Q01DX009 (ip), vehicle: other 96 % of control | dose: 200.0 mg/kg/injection, schedule: Q01DX009 (ip), vehicle: other 86 % of control | dose: 400.0 mg/kg/injection, schedule: Q01DX009 (ip), vehicle: other 86 % of control

O=C1OC2(c3ccc(O)cc3Oc3cc(O)ccc32)C2C3C=CC(C3)C12 (stereo not drawn)
inactive: dose: 50.0 mg/kg/injection, schedule: Q01DX009 (ip), vehicle: Klucel (hydroxypropylcellulose) (HPC) 98 % of control | [12] 104 % of control | [10] 98 % of control | [13] 97 % of control | [11] 92 % of control | dose: 400.0 mg/kg/injection, schedule: Q04DX003 (ip), vehicle: saline 95 % of control

CSc1nc2c(=O)[nH][nH]c(=O)c2n1Cc1ccccc1
inactive: [7] 92 % of control | [8] 90 % of control | [9] 95 % of control

Cc1cc(Cl)ccc1NC(=O)Nc1cccc(F)c1
inactive: [12] 88 % of control | [13] 90 % of control | [14] 86 % of control
